Measured values taken from patent US6641851B2, “Herbal laxative preparation” (The Himalaya Drug Company, priority 2001, dated 2003).

Test system: Wistar rats
Assay: Laxative test in rats
Format: in vivo, rat
Details: for laxative activity: 50 mg/kg b.wt, in words
Protocol: Animals Wistar rats (180-200 g) of either sex were used for the study. The animals were housed in standard laboratory conditions and provided with a temperature of 22±3° C., relative humidity of 50-55% and a 12-hour light/dark cycle. Drinking water and a synthetic pelleted diet (Lipton India Ltd., Mumbal) were supplied ad libitum. The Ethical Committee of the institution approved the experimental protocol. All the animals received humane care according to the criteria outlined in the “Guide for the care and use of Laboratory Animals” prepared by the National Academy of Sciences and published by The National Institute of Heath. Laxative Test in Rats Twenty-four animals of either sex were randomly divided into 4 groups of 6 rats each. Food was withdrawn 12 hrs. before the experiment. […] The animals were then housed individually in cages lined with blotting paper and observed for 24 hrs. The total number of wet fecal produced from each group was noted [Akah P A, Oli […](4):327]. The laxative property of the one of the selected extract KP-4 was further tested to determine the laxative property in relation to the dosage administered in rats. For the purpose the rats were grouped in four groups. Group I received saline and served as control. […] The animals were then housed individually in cages lined with blotting paper and observed for 24 hrs. The total number of wet fecal produced from each group was noted.

SMILES	No of Animals Responded (50 mg/Kg, compounds from KP-1B)	No. of faeces (50 mg/Kg, compounds from KP-1B)	On set of Action (50 mg/Kg, compounds from KP-1B) [min]	Percentage of Action (50 mg/Kg, compounds from KP-1B)	laxative activity (listed as C8, 50 mg/kg)	laxative activity (listed as ferulic acid, 50 mg/kg)
COc1cc(/C=C/C(=O)O)ccc1O [Compound C-8, Ferulic acid]	10/10	7.80 ± 0.80	179.00 ± 22.66	100	significant laxative action	promising activity
COc1cc(C(=O)O)ccc1O [Compound C-9, Vanillic acid]	Nil	–	–	Nil	–	–
